Measurements: PMC3836372 (Biochemical and biophysical research communications, 2013)

Biological target: BmorOR1·BmorOrco (Bombyx mori, UniProt Q5WA61, P178A)
Type: cell-based
Conditions: agonist; co-expressed with BmorOrco; 0.1% DMSO; -80 mV

CCC/C=C\C=C\CCCCCCCCCO [bombykol, (10E,12Z)-hexadecadien-1-ol]
two-electrode voltage clamp, Xenopus oocytes, dose-response of odorant-induced c: the effect on P178A-BmorOR1 was moderate
